SMILES strings stand for the structures.

For one test, the target named is Tyrosine-protein kinase Lck (Homo sapiens, UniProt P06239). The test can be described thus: Inhibition of p56 Lck tyrosine kinase.
Tyrosine-protein kinase Lck, sequence (P06239 whole entry): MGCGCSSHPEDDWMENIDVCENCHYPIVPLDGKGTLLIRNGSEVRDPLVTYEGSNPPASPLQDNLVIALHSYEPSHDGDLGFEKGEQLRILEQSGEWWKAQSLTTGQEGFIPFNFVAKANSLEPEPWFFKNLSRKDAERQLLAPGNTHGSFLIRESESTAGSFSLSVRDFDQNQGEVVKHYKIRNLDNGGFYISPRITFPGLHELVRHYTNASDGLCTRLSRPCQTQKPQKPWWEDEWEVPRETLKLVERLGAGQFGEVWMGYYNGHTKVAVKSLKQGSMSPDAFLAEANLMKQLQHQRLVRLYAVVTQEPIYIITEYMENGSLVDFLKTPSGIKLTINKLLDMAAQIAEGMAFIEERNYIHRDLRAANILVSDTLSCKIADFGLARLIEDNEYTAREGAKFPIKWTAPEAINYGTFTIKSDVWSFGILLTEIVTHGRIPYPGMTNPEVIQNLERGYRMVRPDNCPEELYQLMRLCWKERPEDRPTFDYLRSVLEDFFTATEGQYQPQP
For orientation: IC50 means the concentration that inhibits the measured activity by half. Low values mean greater potency in that assay, high ones weaker potency in that assay. `COc1c(Br)cc(/C=C(\C#N)c2ccccn2)cc1Br` showed a 50% inhibitory concentration (IC50) of more than 2530 µM.
Still for that read-out and setting: the figure for `COc1c(Br)cc(/C=C(\C#N)c2cccnc2)cc1Br` is more than 2530 µM; for `N#C/C(=C\c1cc(Br)c(O)c(Br)c1)c1ccccn1` it is 105 µM.
Consider `N#CC(Cc1cc(Br)c(O)c(Br)c1)c1ccccn1` (stereo not drawn), for which the IC50 was more than 2090 µM.
Molecule `COc1cc(/C=C(\C#N)c2cccnc2)cc(Br)c1O` returned an IC50 of 242 µM.
On the same count and under the same terms, the figure for `N#C/C(=C\c1cc(Br)c(O)c(Br)c1)c1cccnc1` is 168 µM.

Molecular target in another test: not listed separately
The test can be described thus: Inhibition of p56 Lck tyrosine kinase.
Regarding `COc1cc(/C=C/c2cccnc2)cc(OC)c1OC`, the half-inhibitory concentration (IC50) is 516 µM.
Turning to `COc1cc(/C=C/c2ccccn2)cc(OC)c1OC`, inhibition was half-maximal at 2180 µM (IC50).

The record behind these values is ChEMBL document CHEMBL1127934, “Synthesis of a series of brominated 1-phenyl-2-pyridylethenes as inhibitors of the protein-tyrosine kinase p56lck” (Bioorg Med Chem Lett, 1994).
